Test results published in ChEMBL document CHEMBL2176970, “Discovery and optimization of a series of 3-(3-phenyl-3H-imidazo[4,5-b]pyridin-2-yl)pyridin-2-amines: orally bioavailable, selective, and potent ATP-independent Akt inhibitors” (J Med Chem, 2012).
The source made the active and inactive calls. No cut-off for these calls is given here.

Assays:
[1] = biological target: T1, RAC-alpha serine/threonine-protein kinase (Homo sapiens, UniProt P31749); experiment: Inhibition of Akt 1 in human A2780 cells assessed as phosphorylation of Akt at T308 after 2 hrs by Western Blot analysis; assay type: cell-based
T1 sequence (P31749 whole entry): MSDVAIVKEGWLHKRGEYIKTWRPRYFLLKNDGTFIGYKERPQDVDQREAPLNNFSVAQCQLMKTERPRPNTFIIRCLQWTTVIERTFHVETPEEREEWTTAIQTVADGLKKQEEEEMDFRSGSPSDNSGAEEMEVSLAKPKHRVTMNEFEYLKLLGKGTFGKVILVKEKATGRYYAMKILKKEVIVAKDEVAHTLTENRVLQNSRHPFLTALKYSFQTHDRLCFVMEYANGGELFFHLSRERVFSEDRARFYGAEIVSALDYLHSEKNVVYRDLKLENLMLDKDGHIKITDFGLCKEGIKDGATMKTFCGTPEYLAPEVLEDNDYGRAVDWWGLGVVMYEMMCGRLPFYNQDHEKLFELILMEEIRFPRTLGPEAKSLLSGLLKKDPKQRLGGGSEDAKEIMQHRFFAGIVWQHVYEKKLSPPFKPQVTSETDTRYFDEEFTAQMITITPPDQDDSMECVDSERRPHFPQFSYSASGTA

[2] = biological target: T1, RAC-alpha serine/threonine-protein kinase; experiment: Inhibition of Akt 1 in human AN3CA cells assessed as phosphorylation of Akt at T308 after 2 hrs by Western Blot analysis; assay type: cell-based, AN3-CA
[3] = biological target: T1, RAC-alpha serine/threonine-protein kinase; experiment: Inhibition of Akt1 in human AN3CA cells assessed as phosphorylation PRAS40 at T246 after 2 hrs by Western Blot analysis; assay type: cell-based, AN3-CA
[4] = biological target: Cytochrome P450 2C19 (Homo sapiens, UniProt P33261); experiment: Inhibition of CYP2C19 in human liver microsomes using S-mephenytoin as substrate after 10 mins; assay type: ADME, Microsome
Cytochrome P450 2C19, sequence (P33261 whole entry): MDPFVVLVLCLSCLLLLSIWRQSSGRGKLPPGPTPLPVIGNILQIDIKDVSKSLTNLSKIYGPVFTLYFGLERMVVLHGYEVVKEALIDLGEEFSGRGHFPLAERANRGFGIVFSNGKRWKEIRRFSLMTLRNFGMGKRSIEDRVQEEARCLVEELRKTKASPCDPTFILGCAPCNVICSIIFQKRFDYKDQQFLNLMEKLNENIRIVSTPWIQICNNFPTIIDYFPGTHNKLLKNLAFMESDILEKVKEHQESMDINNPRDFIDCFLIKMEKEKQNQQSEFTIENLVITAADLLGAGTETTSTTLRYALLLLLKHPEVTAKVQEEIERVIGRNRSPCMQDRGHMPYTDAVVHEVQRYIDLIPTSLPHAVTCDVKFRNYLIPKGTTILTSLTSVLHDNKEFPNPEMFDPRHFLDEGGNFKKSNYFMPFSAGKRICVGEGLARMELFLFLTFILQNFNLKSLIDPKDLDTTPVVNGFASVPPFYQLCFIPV

[5] = biological target: T1, RAC-alpha serine/threonine-protein kinase; details: Sf9
[6] = biological target: T2, Cytochrome P450 1A2 (Homo sapiens, UniProt P05177); experiment: Inhibition of CYP1A2 in human liver microsomes using phenacetin as substrate after 10 mins; assay type: ADME, Microsome
T2 sequence (P05177 whole entry): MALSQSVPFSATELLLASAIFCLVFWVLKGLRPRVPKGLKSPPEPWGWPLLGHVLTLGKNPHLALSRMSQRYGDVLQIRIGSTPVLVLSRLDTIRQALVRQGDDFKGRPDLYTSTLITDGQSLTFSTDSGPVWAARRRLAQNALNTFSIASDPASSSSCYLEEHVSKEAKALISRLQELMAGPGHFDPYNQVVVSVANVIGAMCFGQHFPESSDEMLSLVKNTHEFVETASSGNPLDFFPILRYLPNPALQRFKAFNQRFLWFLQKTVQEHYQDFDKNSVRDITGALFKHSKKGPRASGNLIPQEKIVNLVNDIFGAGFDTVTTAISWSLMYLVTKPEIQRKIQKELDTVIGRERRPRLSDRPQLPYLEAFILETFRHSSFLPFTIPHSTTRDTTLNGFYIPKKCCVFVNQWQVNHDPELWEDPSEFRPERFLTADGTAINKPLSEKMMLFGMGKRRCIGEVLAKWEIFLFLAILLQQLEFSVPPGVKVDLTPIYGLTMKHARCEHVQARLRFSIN

[7] = test system: Mus musculus; experiment: Inhibition of Akt in human AN3CA cells xenografted NCr mouse assessed as reduction of Akt phosphorylation at S473 in tumor at 100 mg/kg, po after 2 hrs; assay type: functional; details: AN3-CA
[8] = biological target: T1, RAC-alpha serine/threonine-protein kinase; experiment: Inhibition of Akt1 in human A2780 cells assessed as phosphorylation PRAS40 at T246 after 2 hrs by Western Blot analysis; assay type: cell-based
[9] = biological target: T1, RAC-alpha serine/threonine-protein kinase; experiment: Inhibition of Akt1 in human AN3CA cells assessed as phosphorylation of Akt at S473 after 2 hrs by Western Blot analysis; assay type: cell-based, AN3-CA
[10] = biological target: Cytochrome P450 2D6 (Homo sapiens, UniProt P10635); experiment: Inhibition of CYP2D6 in human liver microsomes using bufuralol as substrate after 10 mins; assay type: ADME, Microsome
Cytochrome P450 2D6, sequence (P10635 whole entry): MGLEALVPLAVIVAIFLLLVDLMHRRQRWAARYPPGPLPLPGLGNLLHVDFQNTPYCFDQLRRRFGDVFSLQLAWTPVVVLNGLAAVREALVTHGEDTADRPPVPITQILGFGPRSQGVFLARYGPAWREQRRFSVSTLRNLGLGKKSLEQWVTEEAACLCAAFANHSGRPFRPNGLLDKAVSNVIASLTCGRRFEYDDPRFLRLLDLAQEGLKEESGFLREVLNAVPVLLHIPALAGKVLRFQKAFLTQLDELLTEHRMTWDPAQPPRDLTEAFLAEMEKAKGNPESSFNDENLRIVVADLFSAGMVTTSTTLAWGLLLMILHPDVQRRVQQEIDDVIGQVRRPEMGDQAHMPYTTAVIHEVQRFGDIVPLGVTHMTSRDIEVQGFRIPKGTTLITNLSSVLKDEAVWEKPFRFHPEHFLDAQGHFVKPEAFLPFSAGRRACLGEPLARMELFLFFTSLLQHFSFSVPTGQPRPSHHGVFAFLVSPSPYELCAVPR

[11] = test system: AN3-CA; experiment: Antiproliferative activity against human AN3CA cells after 72 hrs by MTS assay; assay type: functional, cell-based
[12] = biological target: T3, RAC-gamma serine/threonine-protein kinase (Homo sapiens, UniProt Q9Y243); experiment: Binding affinity to Akt3 (1 to 479) expressed in Sf9 cells assessed as change in melting temperature at 15 uM
T3 sequence (Q9Y243 whole entry): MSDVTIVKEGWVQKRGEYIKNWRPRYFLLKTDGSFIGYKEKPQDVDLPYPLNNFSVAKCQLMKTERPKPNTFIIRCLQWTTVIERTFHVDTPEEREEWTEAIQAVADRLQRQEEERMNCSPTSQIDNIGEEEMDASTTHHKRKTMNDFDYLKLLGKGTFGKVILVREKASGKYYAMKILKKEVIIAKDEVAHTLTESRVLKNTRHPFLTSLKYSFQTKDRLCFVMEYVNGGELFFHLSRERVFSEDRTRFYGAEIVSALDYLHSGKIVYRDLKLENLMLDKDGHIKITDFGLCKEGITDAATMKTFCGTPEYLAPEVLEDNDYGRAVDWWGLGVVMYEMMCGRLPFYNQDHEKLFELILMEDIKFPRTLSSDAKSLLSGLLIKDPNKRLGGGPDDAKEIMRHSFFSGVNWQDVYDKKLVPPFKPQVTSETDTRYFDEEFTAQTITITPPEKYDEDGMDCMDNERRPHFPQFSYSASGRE

[13] = test system: A2780; experiment: Antiproliferative activity against human A2780 cells after 72 hrs by MTS assay; assay type: functional, cell-based; details: A2780, 72 h
[14] = biological target: T1, RAC-alpha serine/threonine-protein kinase; experiment: Inhibition of Akt1 in human A2780 cells assessed as phosphorylation of Akt at S473 after 2 hrs by Western Blot analysis; assay type: cell-based
[15] = Half life in human liver microsomes at 1 uM by LC/MS/MS; assay type: ADME, Microsome
[16] = Plasma concentration in CD1 mouse at 100 mg/kg, po after 2 hrs by LC/MS/MS analysis; assay type: ADME, organism-based; set-up: dose 100 mg/kg, route oral
[17] = test system: Mus musculus; experiment: Inhibition of Akt in human AN3CA cells xenografted NCr mouse assessed as reduction of Akt phosphorylation at T308 in tumor at 100 mg/kg, po after 2 hrs; assay type: functional; details: AN3-CA
[18] = biological target: Cytochrome P450 3A4 (Homo sapiens, UniProt P08684); experiment: Inhibition of CYP3A4 in human liver microsomes using midazolam as substrate after 10 mins; assay type: ADME, Microsome
Cytochrome P450 3A4, sequence (P08684 whole entry): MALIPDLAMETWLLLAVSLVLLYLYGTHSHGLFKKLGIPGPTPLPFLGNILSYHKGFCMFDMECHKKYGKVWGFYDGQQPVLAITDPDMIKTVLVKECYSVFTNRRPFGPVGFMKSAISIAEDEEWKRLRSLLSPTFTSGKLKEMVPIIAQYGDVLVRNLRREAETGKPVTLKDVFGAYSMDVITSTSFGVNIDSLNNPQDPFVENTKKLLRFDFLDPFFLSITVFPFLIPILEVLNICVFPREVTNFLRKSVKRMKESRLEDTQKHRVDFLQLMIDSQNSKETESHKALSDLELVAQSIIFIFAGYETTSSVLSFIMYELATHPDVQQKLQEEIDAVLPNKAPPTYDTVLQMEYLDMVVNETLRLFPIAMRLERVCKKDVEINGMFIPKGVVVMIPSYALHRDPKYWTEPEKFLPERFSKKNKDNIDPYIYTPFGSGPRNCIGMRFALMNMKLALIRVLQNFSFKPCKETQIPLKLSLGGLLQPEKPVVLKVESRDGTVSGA

[19] = biological target: T4, RAC-beta serine/threonine-protein kinase (Homo sapiens, UniProt P31751); experiment: Binding affinity to Akt2 (1 to 481) expressed in Sf9 cells assessed as change in melting temperature at 15 uM
T4 sequence (P31751 whole entry): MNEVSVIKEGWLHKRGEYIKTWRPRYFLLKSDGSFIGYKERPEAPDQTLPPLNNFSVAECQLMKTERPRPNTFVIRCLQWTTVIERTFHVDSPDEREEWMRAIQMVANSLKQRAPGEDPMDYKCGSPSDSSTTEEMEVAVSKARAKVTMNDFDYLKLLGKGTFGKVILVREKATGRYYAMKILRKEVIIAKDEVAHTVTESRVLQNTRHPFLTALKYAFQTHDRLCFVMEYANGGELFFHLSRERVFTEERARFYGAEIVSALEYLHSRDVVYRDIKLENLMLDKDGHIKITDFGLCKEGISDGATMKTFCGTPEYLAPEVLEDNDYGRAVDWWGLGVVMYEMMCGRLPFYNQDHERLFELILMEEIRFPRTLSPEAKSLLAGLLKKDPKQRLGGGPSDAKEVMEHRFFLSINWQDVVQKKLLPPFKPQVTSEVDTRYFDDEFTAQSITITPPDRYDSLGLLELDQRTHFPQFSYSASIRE

[20] = biological target: Cytochrome P450 2C9 (Homo sapiens, UniProt P11712); experiment: Inhibition of CYP2C9 in human liver microsomes using tolbutamide as substrate after 10 mins; assay type: ADME, Microsome
Cytochrome P450 2C9, sequence (P11712 whole entry): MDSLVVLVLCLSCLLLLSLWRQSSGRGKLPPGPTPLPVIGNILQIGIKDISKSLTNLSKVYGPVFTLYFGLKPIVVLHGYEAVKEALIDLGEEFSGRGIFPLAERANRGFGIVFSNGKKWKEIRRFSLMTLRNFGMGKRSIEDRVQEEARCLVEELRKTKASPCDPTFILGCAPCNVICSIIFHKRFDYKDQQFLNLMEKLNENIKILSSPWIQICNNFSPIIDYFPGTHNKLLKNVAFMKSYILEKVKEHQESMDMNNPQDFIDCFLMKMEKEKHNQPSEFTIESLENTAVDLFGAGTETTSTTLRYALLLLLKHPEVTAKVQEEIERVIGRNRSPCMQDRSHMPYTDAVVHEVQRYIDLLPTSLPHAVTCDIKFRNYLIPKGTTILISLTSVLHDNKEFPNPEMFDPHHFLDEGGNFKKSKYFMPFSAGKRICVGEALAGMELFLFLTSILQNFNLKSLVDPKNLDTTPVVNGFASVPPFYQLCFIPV

[21] = biological target: T4, RAC-beta serine/threonine-protein kinase; experiment: Inhibition of Akt2 (1 to 481) expressed in Sf9 cells using biotin-GRPRTSSFAEG as substrate after 20 mins by Alpha-screen assay
[22] = Half life in female CD1 mouse liver microsomes at 1 uM by LC/MS/MS; assay type: ADME, Microsome
[23] = biological target: T5, Cytochrome P450 2C8 (Homo sapiens, UniProt P10632); experiment: Inhibition of CYP2C8 in human liver microsomes using paclitaxel as substrate after 10 mins; assay type: ADME, Microsome
T5 sequence (P10632 whole entry): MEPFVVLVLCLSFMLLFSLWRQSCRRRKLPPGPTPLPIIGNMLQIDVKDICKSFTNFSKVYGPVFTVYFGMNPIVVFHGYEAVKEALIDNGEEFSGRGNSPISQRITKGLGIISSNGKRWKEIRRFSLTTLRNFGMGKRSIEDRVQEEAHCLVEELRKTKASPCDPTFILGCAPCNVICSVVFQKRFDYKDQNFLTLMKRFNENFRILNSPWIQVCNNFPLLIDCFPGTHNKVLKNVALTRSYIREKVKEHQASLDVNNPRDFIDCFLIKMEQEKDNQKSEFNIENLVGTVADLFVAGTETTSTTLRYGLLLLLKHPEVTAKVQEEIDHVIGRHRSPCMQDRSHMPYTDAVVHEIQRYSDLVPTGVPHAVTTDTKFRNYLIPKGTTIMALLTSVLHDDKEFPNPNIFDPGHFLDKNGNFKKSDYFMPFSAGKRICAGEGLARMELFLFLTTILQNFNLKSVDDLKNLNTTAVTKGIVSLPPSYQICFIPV

[24] = Half life in male CD1 mouse liver microsomes at 1 uM by LC/MS/MS; assay type: ADME, Microsome
[25] = biological target: T1, RAC-alpha serine/threonine-protein kinase; experiment: Inhibition of Akt1 (1 to 480) expressed in Sf9 cells using biotin-GRPRTSSFAEG as substrate after 20 mins by Alpha-screen assay
[26] = Drug level in human AN3CA cells xenografted NCr mouse tumor at 100 mg/kg, po after 2 hrs; assay type: ADME, organism-based, Neoplasm, AN3-CA; set-up: dose 100 mg/kg, route oral; details: read-out: Drug uptake
[27] = Oral bioavailability in NCr mouse at 100 mg/kg; assay type: ADME, organism-based; details: in vivo
[28] = biological target: T3, RAC-gamma serine/threonine-protein kinase; experiment: Inhibition of Akt3 (1 to 479) expressed in Sf9 cells using biotin-GRPRTSSFAEG as substrate after 20 mins by Alpha-screen assay
[29] = test system: Mus musculus; experiment: Inhibition of Akt in human AN3CA cells xenografted NCr mouse assessed as reduction of p70S6 phosphorylation at T389 in tumor at 100 mg/kg, po after 2 hrs; assay type: functional; details: AN3-CA
[30] = test system: Mus musculus; experiment: Inhibition of Akt in human AN3CA cells xenografted NCr mouse assessed as reduction of Akt phosphorylation at S473 in tumor at 250 mg/kg, po after 2 hrs; assay type: functional; details: AN3-CA
[31] = biological target: T1, RAC-alpha serine/threonine-protein kinase; experiment: Binding affinity to Akt1 (1 to 480) expressed in Sf9 cells by SPR analysis
[32] = test system: Mus musculus; experiment: Inhibition of Akt in human AN3CA cells xenografted NCr mouse assessed as reduction of Akt phosphorylation at T308 in tumor at 250 mg/kg, po after 2 hrs; assay type: functional; details: AN3-CA
[33] = Plasma concentration in CD1 mouse at 250 mg/kg, po after 2 hrs by LC/MS/MS analysis; assay type: ADME, organism-based; set-up: dose 250 mg/kg, route oral
[34] = test system: Mus musculus; experiment: Inhibition of Akt in human AN3CA cells xenografted NCr mouse assessed as reduction of Akt phosphorylation at S473 in tumor at 250 mg/kg, po after 4 hrs; assay type: functional; details: AN3-CA
[35] = Plasma concentration in CD1 mouse at 250 mg/kg, po after 4 hrs by LC/MS/MS analysis; assay type: ADME, organism-based; set-up: dose 250 mg/kg, route oral
[36] = test system: Mus musculus; experiment: Inhibition of Akt in human AN3CA cells xenografted NCr mouse assessed as reduction of Akt phosphorylation at T308 in tumor at 250 mg/kg, po after 4 hrs; assay type: functional; details: AN3-CA
[37] = biological target: T1, RAC-alpha serine/threonine-protein kinase; experiment: Inhibition of Akt1 (1 to 480) expressed in Sf9 cells in presence of A674563
[38] = Drug level in human AN3CA cells xenografted NCr mouse tumor at 250 mg/kg, po after 4 hrs; assay type: ADME, organism-based, Neoplasm, AN3-CA; set-up: dose 250 mg/kg, route oral; details: read-out: Drug uptake
[39] = Drug level in human AN3CA cells xenografted NCr mouse tumor at 250 mg/kg, po after 2 hrs; assay type: ADME, organism-based, Neoplasm, AN3-CA; set-up: dose 250 mg/kg, route oral; details: read-out: Drug uptake
[40] = test system: Mus musculus; experiment: Inhibition of Akt in human AN3CA cells xenografted NCr mouse assessed as reduction of p70S6 phosphorylation at T389 in tumor at 250 mg/kg, po after 4 hrs; assay type: functional; details: AN3-CA
[41] = test system: Mus musculus; experiment: Inhibition of Akt in human AN3CA cells xenografted NCr mouse assessed as reduction of p70S6 phosphorylation at T389 in tumor at 250 mg/kg, po after 2 hrs; assay type: functional; details: AN3-CA

| IC50 [1] [nM] | IC50 [2] [nM] | IC50 [3] [nM] | IC50 [4] [nM] | ΔTm [5] [°C] | IC50 [6] [nM] | IC50 [8] [nM] | IC50 [9] [nM] | IC50 [10] [nM] | ΔTm [12] [°C] | IC50 [13] [nM] | IC50 [14] [nM] | half-life at 1 µM [15] [min] | IC50 [18] [nM] | ΔTm [19] [°C] | IC50 [20] [nM] | IC50 [21] [nM] | half-life at 1 µM [22] [min] | IC50 [23] [nM] | Structure (SMILES) | IC50 [11] [nM] | other results |
| --- | --- | --- | --- | --- | --- | --- | --- | --- | --- | --- | --- | --- | --- | --- | --- | --- | --- | --- | --- | --- | --- |
| 62 | 91 | 1500 | > 10000 | 9.2 | > 10000 | 950 | 80 | > 10000 | 1.6 | > 100000 | 100 | > 30 | > 10000 | 4.8 | > 10000 | 30 | > 60 | > 10000 | Nc1ncccc1-c1nc2cc(-c3cccnc3)cnc2n1-c1ccc(CNC(=O)c2ccccc2)cc1 | > 100000 | inhibition in vivo at 100 mg/kg [7]: 82%; concentration at 2 h [16]: 14100 nM; inhibition in vivo at 100 mg/kg [17]: 25%; half-life at 1 µM [24]: > 60 min; IC50 [25]: 8 nM; concentration at 2 h [26]: 8400 nM; bioavailability [27]: 46%; IC50 [28]: 660 nM; inhibition in vivo at 100 mg/kg [29]: 76% |
| 32 | 45 | 220 | 1000 | 13 | > 10000 | 250 | 44 | > 10000 | 2.9 | 2200 | 27 | > 30 | > 10000 | 7.7 | 1000 | 18 | > 30 | 1000 | CC(=O)Nc1cccc(-c2ccc3nc(-c4cccnc4N)n(-c4ccc(CNC(=O)c5cccc(F)c5)cc4)c3n2)c1 | 2000 | inhibition in vivo at 250 mg/kg [30]: 62%; Activity [31]: Active; inhibition in vivo at 250 mg/kg [32]: 57%; concentration at 2 h [33]: 2000 nM; inhibition in vivo at 250 mg/kg [34]: 51%; concentration at 4 h [35]: 1200 nM; inhibition in vivo at 250 mg/kg [36]: 67%; inhibition [37]: Active; concentration at 4 h [38]: 600 nM; half-life at 1 µM [24]: > 30 min; concentration at 2 h [39]: 1200 nM; inhibition in vivo at 250 mg/kg [40]: 86%; IC50 [28]: 170 nM; inhibition in vivo at 250 mg/kg [41]: 90% |
